Results as given in article PMC2904697, “A Screen for Kinetochore-Microtubule Interaction Inhibitors Identifies Novel Antitubulin Compounds” (PLoS ONE, 2010).
Values joined by “and” are separate entries in the source; they are usually repeats but may differ in a detail not shown here. Equal entries are not always repeated.

Assays:
[1] = biological target: recombinant human Ndc80 kinetochore complex binding to taxol-stabilized microtubules; test: Ndc80^488 complex-MT binding assay (fluorescence microscopy / TIRF); details: for IC50: total internal reflection fluorescence microscopy, Ndc80^488 complex 0.1 µmol/l, taxol-stabilized MTs; for Fold more active than compound B in the Ndc80^488 complex-MT binding assay: versus compound B
Description: To screen compound libraries for molecules inhibiting binding of the outer kinetochore Ndc80 complex (Ndc80, Nuf2, Spc24, Spc25) to MTs, we used a fluorescence microscopy-based in vitro approach (Fig. 1). First, the recombinant human Ndc80 construct, used to crystallize the complex, was produced in Escherichia coli using a bicistronic plasmid from which the Nuf2-Spc24 and Ndc80-Spc25 peptides were generated (Fig. 1A). Following their intracellular assembly, the complex was purified from E. coli cell extract based on the GST tag at the N-terminus of Nuf2. The complex was released in solution with PreScission Protease (its recognition sequence was introduced between the GST tag and the NUF2 coding sequence) and was separated from contaminants by gel filtration chromatography (Fig. 1A). The high degree of purity of the preparation was confirmed by SDS-PAGE analysis and coomassie staining, which identified only both peptides (Fig. 1B). Next, the Ndc80 complex was fluorescently labeled with the Alexa Fluor 488 C5-maleimide (next named the Ndc80^488 complex) and was separated from unreacted fluorophore by gel filtration chromatography. The final preparation was highly pure as evidenced by gel filtration analysis and detection at 519 nm (emission maximum of the Alexa Fluor 488 dye) and at 280 nm (intrinsic protein fluorescence) (Fig. 1B). Next, the Ndc80^488 complex (0.1 µmol/l) was incubated with 10,200 compounds (comprising the Chembridge DIVERset and a compound collection from the Univ. Rome) at a starting concentration of 50 µmol/l. Binding (or lack thereof) of the complex to rhodamine-labeled taxol-stabilized MTs (0.1 µmol/l) was scored by wide-field fluorescence microscopy (Fig. 1C; images in Fig. 2A). […] Total internal reflection fluorescence microscopy was used to establish the IC50 value of the compound, which was measured to be ∼20 µmol/l (Fig. 2C).
Recombinant human Ndc80 complex (Ndc80^Bonsai complex) was produced in Escherichia coli using a bicistronic expression plasmid (Fig. 1A, [12]). Following transcription from the TAC promoter/operator by induction with 0.4 mmol/l IPTG (20°C, 15 h), GST-Nuf2-Spc24 and Ndc80-Spc25 polypeptides were generated, which dimerized intracellulary into the GST-Ndc80 complex. The complex was isolated from E. coli cell extract following incubation with glutathione beads. The complex was released from the beads with PreScission Protease (GE Healthcare Life Sciences) and contaminants were removed by gel filtration chromatography (Superdex 200, GE Healthcare Life Sciences). On average 4 mg of Ndc80 complex were obtained from 1 liter of cell culture. Next, 1 mg Ndc80 complex was labeled with 0.1 mg Alexa Fluor 488 C5-maleimide fluorophore (Invitrogen) at a 1.5-2 stoichiometry. The fluorescent complex (Ndc80^488 complex) was separated from unreacted fluorophore by gel filtration chromatography (Fig. 1B) and was then used to screen for compounds inhibiting Ndc80^488 complex-MT binding (Fig. 1C). The Ndc80^488 complex is fully functional as it is recruited to and acts at kinetochores when injected into prometaphase HeLa cells.
MTs were polymerized (30 min, 37°C) from a 1∶10 mixture of rhodamine-labeled:unlabeled bovine brain αβ-tubulin (Cytoskeleton) in BRB-80 buffer (80 mmol/l PIPES pH 6.8, 1 mmol/l MgCl2, 1 mmol/l EGTA) and were then stabilized with 20 µmol/l taxol. The Ndc80^488 complex (0.1 µmol/l) was incubated with 100 µmol/l compound (30 min, 24°C) in 96-well polypropylene plates (Eppendorf). The 10,000 compound DIVERset library (Chembridge) and 200 compounds from the Department of Medicinal Chemistry and Technologies, University of Rome La Sapienza were used in the screen. Next, the MTs (100 nmol/l) were added to the compound-Ndc80^488 complex solution in a 1∶1 v/v ratio. After incubation (10 min, 24°C), the reaction mixtures were transferred to 96-well glass-bottom plates (Greiner Bio-one). […]

αβ-tubulin = test: Tubulin polymerization tracked turbidimetrically at 350 nm; assay type: biochemical; details: turbidimetric; versus compound B
Protocol: To quantify the antitubulin activity of compound B, we added 1–50 µmol/l compound B to 10 µmol/l αβ-tubulin. […] For this purpose, MTs were assembled from 10 µmol/l αβ-tubulin; 5 min into the reaction compound B was added in concentrations up to 200 µmol/l. MT depolymerization was tracked as a decrease in turbidity at 350 nm (Fig. 5B).
Polymerization of 10 µmol/l αβ-tubulin in BRB-80 buffer was monitored turbidimetrically at 350 nm for 15 min in a temperature-controlled spectrophotometer (37°C; SpectraMax Plus^384, Molecular Devices). To probe the effect of a compound on MT stability the molecule was added 5 min after initiation of tubulin assembly. The decrease in protein turbidity (350 nm) resulting from MT depolymerization was followed for 15 min at 37°C [13]. Quantitative comparisons of drug effects on tubulin assembly were also examined in 0.8 M glutamate with a 15 min drug-tubulin preincubation prior to the addition of GTP [14]. Tubulin assembly was monitored for 20 min at 30°C in Beckman DU7400/7500 spectrophotometers, and the compound concentration inhibiting tubulin assembly by 50% was determined.

[2] = tested on: colchicine site in αβ-tubulin; test: [3H]colchicine competition (DEAE-cellulose filter method); assay type: binding; details: [3H]colchicine 5 µmol/l, tubulin 1 µmol/l
Description: Agents that inhibit tubulin polymerization and destabilize MTs include the colchicinoids, combretastatins, benzimidazole carbamates, vinca alkaloids, and maytansinoids. These drugs act primarily at β-tubulin in the αβ-heterodimer, albeit at different sites. Colchicinoids, combretastatins and benzimidazole carbamates (e.g. nocodazole) localize to the colchicine site near the C-terminus of β-tubulin at the αβ-tubulin intradimer interface, [16], whereas vinca alkaloids and maytansinoids localize to the N-terminal GTPase domain of β-tubulin [17], [18]. […] Its binding affinity, however, was ∼3-fold lower than that of nocodazole (compare values at 5 µmol/l and 20 µmol/l, Fig. 5C).
Tubulin binding of [^3H]colchicine was measured by the DEAE-cellulose filter method. Reaction mixtures contained 1.0 µmol/l αβ-tubulin, 1.0 mol/l monosodium glutamate, 0.1 mol/l glucose-1-phosphate, 1.0 mmol/l MgCl2, 1.0 mmol/l GTP, 0.5 mg/ml BSA, 5% DMSO, 5 µmol/l [^3H]colchicine, and inhibitor at 1, 5, 20 or 50 µmol/l. These reaction conditions strongly stabilize the colchicine-binding activity of tubulin [21].

HeLa cells = test: Mitotic delay and cell death in G1/S-synchronized HeLa cells (time-lapse videomicroscopy); assay type: cell-based, human; details: HeLa released from G1/S; 500 nmol/l
Protocol: At compound B concentrations of 5 µmol/l and above, the cells arrested robustly in metaphase (∼15 h) and then underwent cell death, as diagnosed by cell shrinkage (Fig. 3B). […] This phenotype is indicative of chromatids being unable to bind to spindle MTs and/or of spindle defects, as observed with nocodazole (Fig. 3C). […] Because drugs that inhibit tubulin polymerization also destabilize MTs, we next probed whether compound B destabilized metaphase spindles. We arrested HeLa cells in metaphase using 10 µmol/l of proteosome inhibitor MG132. […] Thus, compound B prevents tubulin assembly and destabilizes spindle MTs in cells.
Next, we determined whether the elevated antitubulin activities of compounds A6, A8, D7 and E7 (versus compound B), and the discrepancies in activity between the compounds themselves were reflected in their effects on mitosis. G1/S synchronized HeLa cells were released into growth medium containing 100 or 500 nmol/l of these compounds or compound B; the duration of the mitotic delay by the compounds and the percentage of cells undergoing subsequent cell death were scored. […] The four compounds triggered mitotic delays to an extent that directly reflects their activities in vitro (compare Fig. 6E and Fig. 6, panels B to D). […] Of note, each of our compounds acted in cells with an efficacy exceeding those measured in vitro (compare Fig. 6E and Fig. 5). This discrepancy may be due to increased compound:tubulin ratios in cells. Alternatively, the compounds may be modified intracellularly, resulting in enhanced activity. Because compound B and the four second-generation compounds are 6-furan-2-yl-3-methyl-4-oxo-4,5,6,7-tetrahydro-1H-indole-2-carboxylic acid derivatives, we have named these tubulin inhibitors “furan-metoticas”.

taxol-stabilized MTs = test: Compound-based depolymerization of taxol-stabilized MTs in vitro; assay type: biochemical, bovine; details: compound 50 µmol/l; taxol (20 µmol/l)-stabilized MTs
Protocol: To test this hypothesis, we treated HeLa cells with 0.5 µmol/l taxol, thereby arresting them in metaphase with stabilized spindles. […] To quantify the taxol-mediated inhibition of MT disassembly by compound B, we measured in vitro the depolymerization of taxol (20 µmol/l)-stabilized MTs following incubation with 50 µmol/l compound B (the screen condition). Nocodazole and maytansine (both at 50 µmol/l) were included as controls. At 50 µmol/l, compound B depolymerized 3% of the taxol-stabilized MT population, while nocodazole and maytansine depolymerized 11% and 31% of the taxol-treated MTs, respectively (Fig. 4B). […] This finding further supports our hypothesis that the interaction of compound B with the stabilized MTs must have prevented the Ndc80^488 complex from establishing contact with the MT surface.
MTs were polymerized (30 min, 37°C) from a 1∶10 mixture of rhodamine-labeled:unlabeled bovine brain αβ-tubulin (Cytoskeleton) in BRB-80 buffer (80 mmol/l PIPES pH 6.8, 1 mmol/l MgCl2, 1 mmol/l EGTA) and were then stabilized with 20 µmol/l taxol. The Ndc80^488 complex (0.1 µmol/l) was incubated with 100 µmol/l compound (30 min, 24°C) in 96-well polypropylene plates (Eppendorf). The 10,000 compound DIVERset library (Chembridge) and 200 compounds from the Department of Medicinal Chemistry and Technologies, University of Rome La Sapienza were used in the screen. Next, the MTs (100 nmol/l) were added to the compound-Ndc80^488 complex solution in a 1∶1 v/v ratio. After incubation (10 min, 24°C), the reaction mixtures were transferred to 96-well glass-bottom plates (Greiner Bio-one). Each well was imaged at 519 nm and 590 nm with an IX81 Olympus inverted wide-field microscope (Olympus). Total internal reflection fluorescence imaging was performed with an Olympus IX71 inverted wide-field microscope (Olympus). ImageJ was used for image processing (NIH, USA).
Taxol-stabilized MTs were prepared and diluted as described for the Ndc80^488 binding experiments. Varying compound concentrations in 10 µl of DMSO were added to 490 µl of diluted MTs at 37°C. Following incubation (30 min, 37°C), 450 µl of each mixture was centrifuged (10 min; 30,000 rpm; 37°C) in a Beckman Optima TLX centrifuge (TLA120.1 rotor). Pellets were dissolved in 25 µl of 8 mol/l urea, and the protein content of 20 µl was compared with that from pellets formed without compound.

Compound	IC50 [1]	Fold more active than compound B in the Ndc80^488 complex-MT binding assay [1] [fold]	Fold lower IC50 for inhibiting tubulin assembly than that of compound B (αβ-tubulin) [fold]	Fold more active than compound B as inhibitors of [3H]colchicine-tubulin binding [2] [fold]	Effect on mitosis at 500 nmol/l (HeLa cells)	Taxol-stabilized MT population depolymerized (taxol-stabilized MTs) [%]
Cc1c(C(=O)OC2CCCCC2)[nH]c2c1C(=O)C[C@@H](c1ccco1)C2 [A6]	~1000 nM and 1000 nM	~20	2.3	3	–	–
C=CCOC(=O)c1[nH]c2c(c1C)C(=O)C[C@@H](c1ccco1)C2 [E7]	~1000 nM and 1000 nM	~20	4.0	3	robust mitotic block, followed by cell death	–
C/C=C/COC(=O)c1[nH]c2c(c1C)C(=O)C[C@@H](c1ccco1)C2 [D7]	~1000 nM and 1000 nM	~20	3.0	3	robust mitotic block, followed by cell death	–
COc1cc2cc(c1Cl)N(C)C(=O)C[C@H](OC(=O)[C@H](C)N(C)C(C)=O)[C@]1(C)O[C@H]1[C@H](C)[C@@H]1C[C@@](O)(NC(=O)O1)[C@H](OC)/C=C/C=C(\C)C2 [maytansine, reference compound]	–	–	–	–	–	31
